Laboratory results as given in PubChem BioAssay (NCI).
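Step 1: Grow cells in 96-well plates. Step 2: Expose to compound for 48 hours at 5 concentrations. Step 3: Interpolate endpoints linearly; if unreached, use highest concentration. The concentration for 50% growth inhibition is given as GI50. The concentration for full growth arrest is given as TGI.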 Where a SMILES comes first, the peptide text is derived from it. [ ]: non-standard residue; d: D form.

Experiments:
Assay in all cases: growth of human tumour cells (NCI), 48 h
SK-OV-3 ovarian = system: SK-OV-3 ovarian
NCI-H226 lung = system: NCI-H226 lung
TK-10 renal = system: TK-10 renal
HCT-116 colon = system: HCT-116 colon
SNB-19 CNS = system: SNB-19 CNS
OVCAR-8 ovarian = system: OVCAR-8 ovarian
K-562 leukemia = system: K-562 leukemia
NCI-H23 lung = system: NCI-H23 lung
786-0 renal = system: 786-0 renal
HOP-62 NSCLC = system: HOP-62 NSCLC

| Structure (SMILES) | TGI (SK-OV-3 ovarian) | TGI (NCI-H226 lung) | TGI (TK-10 renal) | TGI (HCT-116 colon) | TGI (SNB-19 CNS) | TGI (OVCAR-8 ovarian) | TGI (K-562 leukemia) | TGI (NCI-H23 lung) | TGI (786-0 renal) | TGI (HOP-62 NSCLC) | GI50 (SK-OV-3 ovarian) | GI50 (NCI-H226 lung) | GI50 (TK-10 renal) | GI50 (HCT-116 colon) | GI50 (SNB-19 CNS) | GI50 (OVCAR-8 ovarian) | GI50 (K-562 leukemia) | GI50 (NCI-H23 lung) | GI50 (786-0 renal) | GI50 (HOP-62 NSCLC) |
| --- | --- | --- | --- | --- | --- | --- | --- | --- | --- | --- | --- | --- | --- | --- | --- | --- | --- | --- | --- | --- |
| N#CNC1=NCCC(=O)N1CCc1c[nH]c2ccccc12 | > 100 µM | > 100 µM | > 100 µM | > 100 µM | > 100 µM | > 100 µM | > 100 µM | > 100 µM | > 100 µM | > 100 µM |  |  |  |  |  |  |  |  |  |  |
| NC1=Nc2ccccc2Sc2ccccc21 | > 100 µM | > 100 µM | > 100 µM | > 100 µM | > 100 µM | > 100 µM | > 100 µM | > 100 µM | > 100 µM | > 100 µM |  |  |  |  |  |  |  |  |  |  |
| CSCC[C@H](NC(=O)[C@@H](N)CC(N)=O)C(=O)N[C@@H](Cc1c[nH]c2ccccc12)C(=O)N[C@@H](CCC(N)=O)C(=O)N[C@@H](CCC(=O)O)C(=O)N[C@H](C(=O)NCC(=O)N[C@@H](CCCCN)C(=O)N[C@H](C)C(=O)O)C(C)C (H-NMWQEVGK[dA]-OH) | > 100 µM | > 100 µM | > 100 µM | > 100 µM | > 100 µM | > 100 µM | > 100 µM | > 100 µM | > 100 µM | > 100 µM |  |  |  |  |  |  |  |  |  |  |
| COC(=O)C#CC(N)=O | > 100 µM | > 100 µM | 99.1 µM | > 100 µM | > 100 µM | > 94.9 µM | 60.1 µM | > 100 µM | > 100 µM | > 100 µM |  |  |  |  |  |  |  |  |  |  |
| CCOC(=O)N(O)c1ccc(/C=C/c2ccccc2)cc1 | > 100 µM | 0.446 µM | 6.75 µM | 10.5 µM | > 100 µM | > 100 µM | > 100 µM | 37.1 µM | > 51.1 µM | > 59 µM | 23.6 µM | 0.128 µM | 2 µM | 0.407 µM | 18.5 µM | 10.9 µM | 5.88 µM | 5.77 µM | 10.9 µM | 7.45 µM |
